According to patent US20260109707A1, “HETEROBIFUNCTIONAL COMPOUNDS AND METHODS OF TREATING DISEASE” (Halda Therapeutics OpCo. Inc., priority 2022, published 2026):
Where two headings read alike, the source gives them in different places.

Experiments:
[1] = system: T-Rex 293 cell line SC3 cells having increased expression of androgen receptor protein due to exposure to doxycycline; test: Cellular growth inhibition assay, T-Rex 293 SC3 cells with doxycycline (CellTiter-Glo, 72 hours); type: cell-based; conditions: T-Rex 293 SC3 cells with increased androgen receptor expression due to doxycycline (10 ng/mL)
Procedure, shortened: (§1)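 Growth inhibition is measured in an inducible AR-expressing T-Rex 293 clone, SC3, cultured with or without 10 ng/mL doxycycline in hormone-depleted medium. Test compounds are applied for 72 hours. GI50 values derive from CellTiter-Glo 2.0 signal fitted by four-parameter regression.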

[2] = system: T-Rex 293 cell line SC3 cells lacking increased expression of androgen receptor protein; test: Cellular growth inhibition assay, T-Rex 293 SC3 cells without doxycycline (CellTiter-Glo, 72 hours); type: cell-based; conditions: T-Rex 293 cell line SC3 cells not exposed to doxycycline (lacking increased androgen receptor expression)
Procedure, shortened: as §1

VCaP cells = test: Cellular growth inhibition assay for VCaP cells (CellTiter-Glo, 72 hours); type: cell-based, human
Procedure, shortened: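 Luminescent viability signal after 72 h of compound exposure gave GI50 values by four-parameter nonlinear regression. Compounds were added in 0.5% DMSO to cells plated 24 h earlier at 5000/well in DMEM containing 10% FBS.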

T47D cells = test: Cellular growth inhibition assay for T47D cells (CellTiter-Glo, 72 hours); type: cell-based, human; conditions: 72 hours treatment
Method: T47D cells were purchased from American Type Cell Culture (ATCC Cat #HTB-133) and then seeded on poly-D-lysine coated, black clear-bottom 384-well plates at 3000/well in 25 μL Dulbecco's Modified Eagle Medium (DMEM) supplemented with 10% w/w Fetal bovine serum (FBS), 0.2 units/mL recombinant human insulin (Gibco Cat #12585014), and 1% w/w Pen-Strep. Pen-Strep is a commercially available mixture of penicillin G and streptomycin, which is used in mammalian cell culture media to prevent bacterial contamination. Dulbecco's Modified Eagle Medium (DMEM) supplemented with 10% w/w fetal bovine serum (FBS), 0.2 units/mL recombinant human insulin, and 1% w/w Pen-Strep is herein referred to as Treatment Medium. Following seeding of cells in the plates, the plates were spun at 300×g for 30 seconds, then equilibrated to room temperature for 30 minutes, and then deposited in a humidified tissue culture incubator maintained at 37° C. with 5% CO2.
At 24 hours after seeding of the cells, dilutions of test compound were prepared in DMSO and dissolved in Treatment Medium, to achieve a final DMSO concentration of 0.5% w/w, thereby providing the Test Compound Solution. A 25 μL aliquot of the Test Compound Solution was added to cells in the well plates. An equal volume of a solution containing DMSO and Treatment Medium was used as a negative control. Following treatment of cells with Test Compound Solution or said equal volume of a solution containing DMSO and Treatment Medium, the plates were spun at 300×g for 30 seconds, and then left in an incubator for 72 hours.
At the end of the treatment duration, cell viability was quantified with CellTiter-Glo 2.0 reagent (Promega Cat #G9243). For this purpose, plates were equilibrated to room temperature for 30 minutes, and then 25 μL of CellTiter-Glo 2.0 reagent was added to cells in the plate wells. Plates were then agitated on a shaker for two minutes at 500 rpm and subsequently incubated at room temperature for 10 minutes. Following incubation, the plates were spun at 3000×g for 30 seconds, then sealed with an optical adhesive cover, and luminescence readings were measured with an EnVision Plate Reader (Perkin Elmer).
Data was normalized using zero luminescence for baseline. A four-parameter non-linear regression curve fit was applied to dose-response data in GraphPad Prism data analysis software to determine the half-maximal growth inhibitory concentration (GI50) for each test compound.

GI50 (VCaP cells)	GI50 (T47D cells)	GI50 (VCaP cells; Homo sapiens, VCaP, 72 h)	GI50 (T47D cells; Homo sapiens, T47D, 72 h)	SMILES	GI50 [1]	GI50 [2]	GI50 ([1]; 72 h)	GI50 ([2]; 72 h)
< 500 nM	< 500 nM	–	–	Cc1sc2c(c1C)C(c1ccc(CC[C@H]3C[C@@]4(CCCN(c5ccc(C(=O)N[C@H]6CC[C@H](Oc7ccc(C#N)c(Cl)c7)CC6)nn5)C4)C3)cc1)=N[C@@H](C)c1nnc(C)n1-2 [I-326]	< 500 nM	> 3000 nM	–	–
–	–	< 500 nM	< 500 nM	Cc1sc2c(c1C)C(c1ccc(OC3CC4(CCCN(c5ccc(C(=O)N[C@H]6CC[C@H](Oc7ccc(C#N)c(Cl)c7)CC6)nn5)C4)C3)nc1)=N[C@@H](Cc1ncco1)c1nnc(C)n1-2 (stereo partly drawn) [I-247]	–	–	< 500 nM	< 500 nM
–	–	1500 to 3000 nM	> 3000 nM	Cc1sc2c(c1C)C(c1ccc(N3CCC4(CC3)CCN(c3ccc(C(=O)N[C@H]5CC[C@H](Oc6ccc(C#N)c(Cl)c6)CC5)nn3)C4)cc1)=NCc1nnc(C)n1-2 [I-400]	–	–	< 500 nM	500 to 1500 nM
–	–	< 500 nM	500 to 1500 nM	Cc1sc2c(c1C)C(c1ccc([C@H]3CCCCN3C(=O)[C@H]3CCCN(c4ccc(C(=O)N[C@H]5CC[C@H](Oc6ccc(C#N)c(Cl)c6)CC5)nn4)C3)cc1)=N[C@@H](Cc1ncco1)c1nnc(C)n1-2 [I-296]	–	–	< 500 nM	> 3000 nM
–	–	< 500 nM	< 500 nM	Cc1sc2c(c1C)C(c1ccc(CCC[C@H]3CCCN(c4ccc(C(=O)N[C@H]5CC[C@H](OC6CCC(C#N)C(Cl)C6)CC5)nn4)CC3)cc1)=N[C@@H](Cc1ncco1)c1nnc(C)n1-2 (stereo partly drawn) [I-395]	–	–	< 500 nM	< 500 nM
–	–	< 500 nM	< 500 nM	CC1=NN=C2C1c1sc(C)c(C)c1C(c1ccc(C#CC3C4CN(c5ccc(C(=O)N[C@H]6CC[C@H](Oc7ccc(C#N)c(Cl)c7)CC6)nn5)CC34)cc1)=N[C@@H]2Cc1ncco1 (stereo partly drawn) [I-408]	–	–	< 500 nM	< 500 nM
–	–	1500 to 3000 nM	1500 to 3000 nM	Cc1sc2c(c1C)C(c1ccc(C(=O)N3CCC(N(C)c4ccc(C(=O)N[C@H]5CC[C@H](Oc6ccc(C#N)c(Cl)c6)CC5)nn4)CC3)cc1)=N[C@H](Cc1ncco1)c1nnc(C)n1-2 [I-307]	–	–	< 500 nM	500 to 1500 nM

Second part, the molecule before the results:

SMILES	GI50 (VCaP cells)	GI50 (T47D cells)	GI50 (VCaP cells; Homo sapiens, VCaP, 72 h)	GI50 (T47D cells; Homo sapiens, T47D, 72 h)	GI50 [1]	GI50 [2]	GI50 ([1]; 72 h)	GI50 ([2]; 72 h)
Cc1sc2c(c1C)C(c1ccc(C#CC3CC4(C3)CN(c3ccc(C(=O)N[C@H]5CC[C@H](Oc6ccc(C#N)c(Cl)c6)CC5)nn3)C4)cc1)=N[C@@H](Cc1ncco1)c1nnc(C)n1-2 [I-138]	–	–	< 500 nM	< 500 nM	–	–	< 500 nM	< 500 nM
Cc1sc2c(c1C)C(c1ccc(N3CCC[C@H](C(=O)NCc4ccc(C(=O)N[C@H]5CC[C@H](Oc6ccc(C#N)c(Cl)c6)CC5)nn4)C3)cc1)=N[C@H](Cc1ncco1)c1nnc(C)n1-2 [I-295]	–	–	> 3000 nM	1500 to 3000 nM	–	–	500 to 1500 nM	> 3000 nM
Cc1sc2c(c1C)C(c1ccc(CC[C@H]3C[C@@]4(CCCN(c5ccc(C(=O)N[C@H]6CC[C@H](Oc7ccc(C#N)c(Cl)c7)CC6)nn5)C4)C3)nc1)=N[C@@H](Cc1ncco1)c1nnc(C)n1-2 [I-207]	–	–	< 500 nM	< 500 nM	–	–	< 500 nM	< 500 nM
Cc1sc2c(c1C)C(c1ccc(CC3CN(CC4CCN(c5ccc(C(=O)N[C@H]6CC[C@H](Oc7ccc(C#N)c(Cl)c7)CC6)nn5)CC4)C3)cc1)=N[C@H](Cc1ncco1)c1nnc(C)n1-2 [I-114]	–	–	500 to 1500 nM	500 to 1500 nM	–	–	< 500 nM	1500 to 3000 nM
[2H]C([2H])(c1ccc(C2=N[C@@H](Cc3ncco3)c3nnc(C)n3-c3sc(C)c(C)c32)cc1)N1CCC2(CCCN(c3ccc(C(=O)N[C@H]4CC[C@H](Oc5ccc(C#N)c(Cl)c5)CC4)nn3)C2)C1 (stereo partly drawn) [I-389]	–	–	< 500 nM	500 to 1500 nM	–	–	< 500 nM	1500 to 3000 nM
